Source: PubChem BioAssay (NCI)
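Cultured in 96-well plates, cells were exposed to test compound for 48 hours across five concentrations. Definition used: TGI = concentration required for complete inhibition of growth.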

What was measured:
Experiment in all cases: inhibition of tumour cell growth, NCI panel, 48 h
786-0 renal = system: 786-0 renal
A498 renal = system: A498 renal
A549 NSCLC = system: A549 NSCLC
ACHN renal = system: ACHN renal
BT-549 breast = system: BT-549 breast
CCRF-CEM leukemia = system: CCRF-CEM leukemia
COLO 205 colon = system: COLO 205 colon
DU-145 prostate = system: DU-145 prostate
EKVX NSCLC = system: EKVX NSCLC
HCC-2998 colon = system: HCC-2998 colon
HCT-116 colon = system: HCT-116 colon
HCT-15 colon = system: HCT-15 colon
HL-60(TB) leukemia = system: HL-60(TB) leukemia
HOP-62 NSCLC = system: HOP-62 NSCLC
HS 578T breast = system: HS 578T breast
HT29 colon = system: HT29 colon
IGROV1 ovarian = system: IGROV1 ovarian
K-562 leukemia = system: K-562 leukemia
LOX IMVI melanoma = system: LOX IMVI melanoma
M14 melanoma = system: M14 melanoma
MALME-3M melanoma = system: MALME-3M melanoma
MCF7 breast = system: MCF7 breast
MDA-MB-231 breast = system: MDA-MB-231 breast
MDA-MB-435 = system: MDA-MB-435
MDA-N = system: MDA-N
MOLT-4 leukemia = system: MOLT-4 leukemia
NCI-H226 lung = system: NCI-H226 lung
NCI-H23 lung = system: NCI-H23 lung
NCI-H460 lung = system: NCI-H460 lung
NCI-H522 lung = system: NCI-H522 lung
NCI/ADR-RES ovarian = system: NCI/ADR-RES ovarian
OVCAR-3 ovarian = system: OVCAR-3 ovarian
OVCAR-4 ovarian = system: OVCAR-4 ovarian
OVCAR-5 ovarian = system: OVCAR-5 ovarian
OVCAR-8 ovarian = system: OVCAR-8 ovarian
PC-3 prostate = system: PC-3 prostate
RPMI-8226 leukemia = system: RPMI-8226 leukemia
RXF 393 renal = system: RXF 393 renal
SF-268 CNS = system: SF-268 CNS
SF-295 CNS = system: SF-295 CNS
SF-539 CNS = system: SF-539 CNS
SK-MEL-2 melanoma = system: SK-MEL-2 melanoma
SK-MEL-28 melanoma = system: SK-MEL-28 melanoma
SK-MEL-5 melanoma = system: SK-MEL-5 melanoma
SK-OV-3 ovarian = system: SK-OV-3 ovarian
SN12C renal = system: SN12C renal
SNB-19 CNS = system: SNB-19 CNS
SNB-75 CNS = system: SNB-75 CNS
SR leukemia = system: SR leukemia
SW-620 colon = system: SW-620 colon
T-47D breast = system: T-47D breast
TK-10 renal = system: TK-10 renal
U251 CNS = system: U251 CNS
UACC-62 melanoma = system: UACC-62 melanoma
UO-31 renal = system: UO-31 renal
CAKI-1 renal = system: CAKI-1 renal
DLD-1 colon = system: DLD-1 colon
DMS 114 small cell lung = system: DMS 114 small cell lung
HOP-18 NSCLC = system: HOP-18 NSCLC
HOP-92 NSCLC = system: HOP-92 NSCLC
KM12 colon = system: KM12 colon
LXFL 529 NSCLC = system: LXFL 529 NSCLC
M19-MEL melanoma = system: M19-MEL melanoma
SNB-78 CNS = system: SNB-78 CNS
UACC-257 melanoma = system: UACC-257 melanoma

In the case of `CNc1ccc(OC)cc1S(=O)(=O)c1ccccc1[N+](=O)[O-]`, the TGI (786-0 renal) was > 100 µM, the TGI (A498 renal) was > 100 µM and the TGI (A549 NSCLC) was > 100 µM. For the same compound, the TGI (ACHN renal) was > 100 µM, the TGI (BT-549 breast) was > 100 µM and the TGI (CCRF-CEM leukemia) was > 100 µM. For the same compound, the TGI (COLO 205 colon) was > 100 µM, the TGI (DU-145 prostate) was > 100 µM and the TGI (EKVX NSCLC) was > 100 µM. The TGI (HCC-2998 colon) was > 100 µM, the TGI (HCT-116 colon) was > 100 µM and the TGI (HCT-15 colon) was > 100 µM. For the same compound, the TGI (HL-60(TB) leukemia) was > 100 µM, the TGI (HOP-62 NSCLC) was > 100 µM and the TGI (HS 578T breast) was > 100 µM. For the same compound, the TGI (HT29 colon) was > 100 µM, the TGI (IGROV1 ovarian) was > 100 µM and the TGI (K-562 leukemia) was > 100 µM. The TGI (LOX IMVI melanoma) was > 100 µM, the TGI (M14 melanoma) was > 100 µM and the TGI (MALME-3M melanoma) was > 100 µM. The TGI (MCF7 breast) was > 100 µM, the TGI (MDA-MB-231 breast) was > 100 µM and the TGI (MDA-MB-435) was > 100 µM. For the same compound, the TGI (MDA-N) was > 100 µM, the TGI (MOLT-4 leukemia) was > 100 µM and the TGI (NCI-H226 lung) was > 100 µM. For the same compound, the TGI (NCI-H23 lung) was > 100 µM, the TGI (NCI-H460 lung) was > 100 µM and the TGI (NCI-H522 lung) was > 100 µM. For the same compound, the TGI (NCI/ADR-RES ovarian) was > 100 µM, the TGI (OVCAR-3 ovarian) was > 100 µM and the TGI (OVCAR-4 ovarian) was > 100 µM. For the same compound, the TGI (OVCAR-5 ovarian) was > 100 µM, the TGI (OVCAR-8 ovarian) was > 100 µM and the TGI (PC-3 prostate) was > 100 µM. The TGI (RPMI-8226 leukemia) was > 100 µM, the TGI (RXF 393 renal) was > 100 µM and the TGI (SF-268 CNS) was > 100 µM. For the same compound, the TGI (SF-295 CNS) was > 100 µM, the TGI (SF-539 CNS) was > 100 µM and the TGI (SK-MEL-2 melanoma) was > 100 µM. For the same compound, the TGI (SK-MEL-28 melanoma) was > 100 µM, the TGI (SK-MEL-5 melanoma) was > 100 µM and the TGI (SK-OV-3 ovarian) was > 100 µM. For the same compound, the TGI (SN12C renal) was > 100 µM, the TGI (SNB-19 CNS) was > 100 µM and the TGI (SNB-75 CNS) was > 100 µM. For the same compound, the TGI (SR leukemia) was > 100 µM, the TGI (SW-620 colon) was > 100 µM and the TGI (T-47D breast) was > 100 µM. For the same compound, the TGI (TK-10 renal) was > 100 µM, the TGI (U251 CNS) was > 100 µM and the TGI (UACC-62 melanoma) was > 100 µM. For the same compound, the TGI (UO-31 renal) was > 100 µM.

`CC1=CC(/C=C(\C)CCCc2ccoc2)C2(OC(=O)C(C)=C2O)[C@H]2C1CC[C@@H]2C` (some centres not stated) was tested, and the TGI (786-0 renal) was 32.2 µM, the TGI (A498 renal) was 49.2 µM and the TGI (A549 NSCLC) was > 100 µM. The TGI (ACHN renal) was 76.4 µM, the TGI (CAKI-1 renal) was > 100 µM and the TGI (CCRF-CEM leukemia) was 58.6 µM. For the same compound, the TGI (COLO 205 colon) was 47 µM, the TGI (DLD-1 colon) was > 100 µM and the TGI (DMS 114 small cell lung) was 72.2 µM. For the same compound, the TGI (EKVX NSCLC) was > 100 µM, the TGI (HCC-2998 colon) was 74.2 µM and the TGI (HCT-116 colon) was 38.1 µM. The TGI (HCT-15 colon) was 39.8 µM, the TGI (HOP-18 NSCLC) was 82.6 µM and the TGI (HOP-92 NSCLC) was 41 µM. For the same compound, the TGI (HT29 colon) was > 100 µM, the TGI (IGROV1 ovarian) was > 100 µM and the TGI (K-562 leukemia) was > 100 µM. The TGI (KM12 colon) was > 100 µM, the TGI (LOX IMVI melanoma) was 59.3 µM and the TGI (LXFL 529 NSCLC) was 58.8 µM. The TGI (M14 melanoma) was 60.9 µM, the TGI (M19-MEL melanoma) was 90.6 µM and the TGI (MALME-3M melanoma) was 57.1 µM. It also gave a TGI (MOLT-4 leukemia) of 41.3 µM, a TGI (NCI-H226 lung) of 54.6 µM and a TGI (NCI-H23 lung) of 67.2 µM. For the same compound, the TGI (NCI-H522 lung) was 31.2 µM, the TGI (OVCAR-3 ovarian) was 51 µM and the TGI (OVCAR-8 ovarian) was > 100 µM. For the same compound, the TGI (RPMI-8226 leukemia) was 59.6 µM, the TGI (RXF 393 renal) was 60.5 µM and the TGI (SF-295 CNS) was 56.2 µM. The TGI (SF-539 CNS) was 36.8 µM, the TGI (SK-MEL-28 melanoma) was > 100 µM and the TGI (SK-MEL-5 melanoma) was 46.4 µM. The TGI (SK-OV-3 ovarian) was 69 µM, the TGI (SN12C renal) was 60.8 µM and the TGI (SNB-19 CNS) was 42.6 µM. The TGI (SNB-75 CNS) was > 100 µM, the TGI (SNB-78 CNS) was 85.2 µM and the TGI (SW-620 colon) was > 100 µM. For the same compound, the TGI (TK-10 renal) was > 100 µM, the TGI (U251 CNS) was 67.1 µM and the TGI (UACC-257 melanoma) was > 100 µM. It also gave a TGI (UACC-62 melanoma) of 37.5 µM and a TGI (UO-31 renal) of 31 µM.
